The subject of data set [1] is Trypanosoma brucei brucei. As to the kind of experiment: Antitrypanosomal activity against pentamidine-sensitive Trypanosoma brucei brucei LAB 110 EATRO. The format is functional, organism-based.
Data set [2] relates to Trypanosoma brucei rhodesiense. The data set is described as follows: Antitrypanosomal activity against Multidrug-resistant Trypanosoma brucei rhodesiense KETRI 243. The format is functional, organism-based.
The next data set relates to Pneumocystis carinii. As to the kind of experiment: Antipneumocystis activity against Pneumocystis carinii. The format is functional, organism-based.
The subject of another data set is A549. As to the kind of experiment: Cytotoxicity against human A549 cells. The class given is cell-based.
Data set [3] relates to Nucleic Acid. The data set is described as follows: Binding affinity to poly(dA-dT)DNA assessed as change in melting temperature. The format is nucleic-acid assay.
Data set [4] can be described thus: Selectivity index, ratio of IC50 for human A549 cells to IC50 for Trypanosoma brucei. The format is toxicity, cell-based. As to conditions: read-out: Ratio IC50.
Data set [5] in a line: Selectivity index, ratio of IC50 for human A549 cells to IC50 for Pneumocystis carinii.
Data set [6] has as its system Nucleic Acid. The data set is described as follows: Binding affinity to DNA assessed as change in melting temperature. The format is nucleic-acid assay.

For orientation: IC50 means the concentration that inhibits the measured activity by half. Lower therefore signals inhibition by little substance. The ΔTm is the shift of the melting midpoint relative to a reference.

For the compound `N=C(N)c1ccc(NC(=O)CCCCCCCCCCC(=O)Nc2ccc(C(=N)N)cc2)cc1`, the IC50 in data set [1] was 0.008 µM; in data set [2], 0.007 µM; with Pneumocystis carinii, 3.07 µM; in the data set on A549, 18 µM. Moreover, the ΔTm in the data set with Nucleic Acid [3] turned out to be 7.5 °C.

On to `N=C(N)c1ccc(NC(=O)CCCCC(=O)Nc2ccc(C(=N)N)cc2)cc1`, for which the IC50 in data set [1] is 0.003 µM; in data set [2] it was 0.002 µM; in the data set on A549, 1190 µM. In addition, in data set [4], the selectivity ratio stood at 18900. Besides, the “Ratio IC50” value in data set [5] is given as 596500. The ΔTm in the data set on Nucleic Acid [3] was 7.5 °C; with Nucleic Acid [6], 11.4 °C.

Consider `N=C(N)c1cccc(NC(=O)CCCCC(=O)Nc2cccc(C(=N)N)c2)c1`, for which the results for the IC50 (in data set [1]; in data set [2]; in the data set with Pneumocystis carinii) were 0.041 µM, 0.021 µM and 33.7 µM, respectively. The ΔTm in the data set on Nucleic Acid [3] and with Nucleic Acid [6] was 13.8 °C in each case.

Turning to `N=C(N)c1ccc(NC(=O)CCCCCCCCC(=O)Nc2ccc(C(=N)N)cc2)cc1`, the IC50 in data set [1] was determined as 0.002 µM; in data set [2], 0.004 µM; in the data set with Pneumocystis carinii, 4.28 µM; with A549, 249 µM. Besides, in data set [4], the selectivity ratio is 18900. Besides, the ΔTm with Nucleic Acid [3] came out at 7.5 °C.

As to `N=C(N)c1ccc(NC(=O)CCC(=O)Nc2ccc(C(=N)N)cc2)cc1`, the IC50 in data set [1] is 9 µM; in data set [2] it was 2.19 µM; in the data set with Pneumocystis carinii, 0.442 µM; with A549 it was over 44.2 µM. In addition, the figures for the ΔTm with Nucleic Acid [3] and in the data set on Nucleic Acid [6] were 7.5 °C and 11.4 °C, respectively.

For `N#Cc1ccc(NC(=O)CCCC(=O)Nc2ccc(C#N)cc2)cc1`, the IC50 in data set [1] amounted to 6.5 µM; in data set [2] it was 7.9 µM. In addition, the ΔTm in the data set with Nucleic Acid [3] came to 7.5 °C.

`N=C(N)c1ccc(NC(=O)CCCCCCCC(=O)Nc2ccc(C(=N)N)cc2)cc1`: the IC50 in data set [1] is 0.4 µM; in data set [2], 0.24 µM; in the data set with Pneumocystis carinii, 2.44 µM; with A549, 2.87 µM. In addition, in the data set with Nucleic Acid [3], the ΔTm worked out at 7.5 °C.

Consider `N=C(N)c1ccc(NC(=O)CCCCC(=O)Nc2cccc(C(=N)N)c2)cc1`, for which the IC50 in data set [1] was 0.012 µM; in data set [2], 0.007 µM; in the data set with Pneumocystis carinii it was 2.27 µM; with A549, over 227 µM. The selectivity ratio in data set [4] amounted to 18900. In the data set on Nucleic Acid [3], the ΔTm came to 7.5 °C.

For the compound `N=C(N)c1ccc(NC(=O)CCCC(=O)Nc2ccc(C(=N)N)cc2)cc1`, the IC50 in data set [1] came to 0.009 µM; in data set [2], 0.096 µM; in the data set on Pneumocystis carinii, 0.003 µM; with A549 it was 2280 µM. Also, the figures for the ΔTm with Nucleic Acid [3] and with Nucleic Acid [6] were 7.5 °C and 11.4 °C, respectively.

`N=C(N)c1ccc(OCCCCCOc2ccc(C(=N)N)cc2)cc1` [PENTAMIDINE] gave an IC50 in data set [2] of […]. Besides, in the data set with Nucleic Acid [3], the ΔTm stood at 21.6 °C.

Take `NC(=O)c1ccc(NC(=O)CCCCC(=O)Nc2ccc(C(N)=O)cc2)cc1`: the IC50 in data set [1] was 2.8 µM; in data set [2], 1.1 µM; with Pneumocystis carinii, over 100 µM. Moreover, the ΔTm with Nucleic Acid [3] was determined as 7.5 °C.

In the case of `NC(=O)c1cccc(NC(=O)CCCCC(=O)Nc2cccc(C(N)=O)c2)c1`, the IC50 in data set [2] was 1.97 µM; in the data set with Pneumocystis carinii, over 100 µM; in the data set on A549 it was over 261 µM. The ΔTm with Nucleic Acid [3] was determined as 7.5 °C.

Turning to `N=C(N)c1ccc(NC(=O)CCCCCCC(=O)Nc2ccc(C(=N)N)cc2)cc1`, the IC50 turned out to be 0.003 µM in data set [1], 0.001 µM in data set [2], 1.95 µM with Pneumocystis carinii and 176 µM in the data set with A549. Also, the selectivity ratio in data set [4] amounted to 18900. Further, the ΔTm in the data set on Nucleic Acid [3] and in the data set with Nucleic Acid [6] was 13.2 °C throughout.

On to `N=C(N)c1ccc(NC(=O)CCCCCC(=O)Nc2ccc(C(=N)N)cc2)cc1`, for which the IC50 in data set [1] was 0.002 µM; in data set [2], 0.002 µM; in the data set on Pneumocystis carinii it was 2.37 µM; in the data set with A549 it was over 237 µM. For the same compound, the selectivity ratio in data set [4] turned out to be 18900. In addition, in the data set with Nucleic Acid [3], the ΔTm was found to be 7.5 °C.
